Source: patent US6010876A, “Clavanins” (The Regents of the University of California, priority 1996, dated 2000)

Experiments:
L. monocytogenes EGD = experiment: radial diffusion assay; format: cell-based, Listeria monocytogenes; settings: for potency relative to Clavanins A and B: L. monocytogenes Strain EGD, radial diffusion (FIG. 5)
Method: (§1) In more detail, the filtrates (≈3.5 mg of protein by BCA) were concentrated to 2 ml by vacuum centrifugation in a Speed Vac Concentrator (Savant Instruments, Hicksville, N.Y.). Gel permeation chromatography was performed on a 1.2×65 cm BioGel P-10 gel permeation column with 5% acetic acid. Preparative continuous acid-urea PAGE electrophoresis was performed as described by Harwig, S. S. L. et al., Anal Biochem (1993) 208:382. Active fractions were pooled and purified by RP-HPLC a 4.6×250 mm Vydac C18 column, using various linear gradients of acetonitrile in 0.1% trifluoroacetic acid (TFA) or […],) heptafluorobutyric acid (HFBA). Throughout this multistep procedure, fractions were lyophilized, concentrated and tested for antimicrobial activity against Listeria monocytogenes strain EGD by a radial diffusion technique described in Lehrer, R. I. et al., J Immunol Methods (1991) 137:167. In these assays, the underlay gels contained 9 mM sodium phosphate and 1 mM sodium citrate buffer, 0.30 mg/ml of trypticase soy broth powder (BBL, Cockeysville, Md.) and […] at a final pH of 6.5.
(§2) In addition to Cecropin P1 and Magainin 1, the activity of Clavanin A(K) was also tested. Clavanin A(K) is identical to Clavanin A except that all of the histidine residues are replaced by lysine. […] The data are provided as minimal bacteriocidal concentrations expressed in μg/ml which are the X-intercepts of radial diffusion assays performed at pH 6.5 in an underlay that contained 10 mM buffer ([…]), 1% agarose and 0.3 mg trypticase soy powder/ml.
(§3) The effect of pH on antimicrobial activity against several organisms was tested in a pH range wherein histidine becomes comparably charged to lysine. FIGS. 6-8 show the results for native or synthetic Clavanin A and synthetic Clavanin A(K) using defensin NP-2 as a control, with respect to L. monocytogenes, E. coli, and C. albicans respectively. The radial diffusion assays were conducted as described in Examples 1 and 3 above.

E. coli ML-35p = experiment: radial diffusion assay; format: cell-based; settings: for potency relative to Clavanins A and B: E. coli ML-35P, radial diffusion (FIG. 5)
Method: as §1, §2, §3

E. coli BAS 894 = experiment: radial diffusion assay, minimal bactericidal concentration; format: cell-based; settings: X-intercept of radial diffusion assay, pH 6.5
Method: as §1, §2

E. coli mcr 106 = experiment: as above; format: cell-based; settings: X-intercept of radial diffusion assay, pH 6.5
Method: as §1, §2

E. faecalis CDC 21 (VR) = experiment: as above; format: cell-based; settings: X-intercept of radial diffusion assay, pH 6.5
Method: as §1, §2

E. faecium 94.132 (VR) = experiment: as above; format: cell-based; settings: X-intercept of radial diffusion assay, pH 6.5
Method: as §1, §2

E. faecium = experiment: as above; format: cell-based; settings: E. faecium (strain not given); X-intercept of radial diffusion assay, pH 6.5
Method: as §1, §2

K. pneumoniae 2270 = experiment: as above; format: cell-based; settings: X-intercept of radial diffusion assay, pH 6.5
Method: as §1, §2

MRSA 28841 = experiment: as above; format: cell-based; settings: X-intercept of radial diffusion assay, pH 6.5
Method: as §1, §2

MRSA 30371 = experiment: as above; format: cell-based; settings: X-intercept of radial diffusion assay, pH 6.5
Method: as §1, §2

P. aeruginosa MR 2133 = experiment: as above; format: cell-based; settings: X-intercept of radial diffusion assay, pH 6.5
Method: as §1, §2

P. aeruginosa MR 3007 = experiment: as above; format: cell-based; settings: X-intercept of radial diffusion assay, pH 6.5
Method: as §1, §2

P. aeruginosa SBI-N = experiment: as above; format: cell-based; settings: X-intercept of radial diffusion assay, pH 6.5
Method: as §1, §2

S. aureus 930918-3 = experiment: as above; format: cell-based; settings: X-intercept of radial diffusion assay, pH 6.5
Method: as §1, §2

S. typhimurium 14028s = experiment: as above; format: cell-based; settings: X-intercept of radial diffusion assay, pH 6.5
Method: as §1, §2

S. typhimurium 7953s = experiment: as above; format: cell-based; settings: X-intercept of radial diffusion assay, pH 6.5
Method: as §1, §2

Substance | potency relative to Clavanins A and B (L. monocytogenes EGD) | potency relative to Clavanins A and B (E. coli ML-35p) | minimal bacteriocidal concentration (E. coli BAS 894) | minimal bacteriocidal concentration (E. coli mcr 106) | minimal bacteriocidal concentration (E. faecalis CDC 21 (VR)) | minimal bacteriocidal concentration (E. faecium 94.132 (VR)) | minimal bacteriocidal concentration (E. faecium) | minimal bacteriocidal concentration (K. pneumoniae 2270) | minimal bacteriocidal concentration (MRSA 28841) | minimal bacteriocidal concentration (MRSA 30371) | minimal bacteriocidal concentration (P. aeruginosa MR 2133) | minimal bacteriocidal concentration (P. aeruginosa MR 3007) | minimal bacteriocidal concentration (P. aeruginosa SBI-N) | minimal bacteriocidal concentration (S. aureus 930918-3) | minimal bacteriocidal concentration (S. typhimurium 14028s) | minimal bacteriocidal concentration (S. typhimurium 7953s) | minimal bacteriocidal concentration (L. monocytogenes EGD; L. monocytogenes EGD, X-intercept of radial diffusion assay, pH 6.5) | minimal bacteriocidal concentration (E. coli ML-35p; E. coli ML-35p, X-intercept of radial diffusion assay, pH 6.5)
AFKLL GRIIH HVGNF VY'GFS HVF* [Clavanin D] | 3-5 fold | 3-5 fold | – | – | – | – | – | – | – | – | – | – | – | – | – | – | – | –
Cecropin P1: known antimicrobial peptide used for comparison (SWLSKTAKKLENSAKKRISEGIAIAIQGGPR; Cecropin-P1; UniProt P14661 14-44, looked up) | – | – | 0.41 µg/mL | 0.54 µg/mL | > 200 µg/mL | 7.5 µg/mL | 6.5 µg/mL | 0.70 µg/mL | > 200 µg/mL | > 200 µg/mL | 0.51 µg/mL | 0.71 µg/mL | 0.44 µg/mL | > 200 µg/mL | 0.72 µg/mL | 0.43 µg/mL | 6.0 µg/mL | 0.64 µg/mL
VFHLL GKIIH HVGNF VY'GFS HVF* [Clavanin C] | 3-5 fold | 3-5 fold | – | – | – | – | – | – | – | – | – | – | – | – | – | – | – | –
